{"source": "paper PMC6441019", "about": "“Prospective discovery of small molecule enhancers of an E3 ligase-substrate interaction” (Nature Communications, 2019)", "key": {"[1]": {"biological_target": "T1, β-TrCP (Homo sapiens, UniProt Q9Y297)", "T1 construct": "6xHis-SMT3 (N, cleaved yes); made in house; host or cells: E. coli (co-expressed with BirA)", "T1 sequence (Q9Y297 1-569 isoform Q9Y297-2)": "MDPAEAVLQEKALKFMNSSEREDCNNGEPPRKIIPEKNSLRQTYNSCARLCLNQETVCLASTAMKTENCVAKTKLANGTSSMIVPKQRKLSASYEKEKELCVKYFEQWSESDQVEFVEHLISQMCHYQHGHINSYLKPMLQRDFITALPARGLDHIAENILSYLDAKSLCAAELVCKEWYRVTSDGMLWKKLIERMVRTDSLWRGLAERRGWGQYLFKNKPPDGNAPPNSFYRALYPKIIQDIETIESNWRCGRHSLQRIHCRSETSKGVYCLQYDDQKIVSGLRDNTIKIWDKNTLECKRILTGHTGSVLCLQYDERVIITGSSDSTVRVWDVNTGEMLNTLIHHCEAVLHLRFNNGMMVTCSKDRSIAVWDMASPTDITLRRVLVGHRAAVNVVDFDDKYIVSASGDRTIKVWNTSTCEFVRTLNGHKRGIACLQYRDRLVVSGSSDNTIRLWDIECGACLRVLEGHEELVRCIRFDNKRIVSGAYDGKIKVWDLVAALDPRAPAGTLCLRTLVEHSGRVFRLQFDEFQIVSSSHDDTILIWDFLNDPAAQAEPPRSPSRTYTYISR", "T1 sequence (P63208 whole entry partner)": "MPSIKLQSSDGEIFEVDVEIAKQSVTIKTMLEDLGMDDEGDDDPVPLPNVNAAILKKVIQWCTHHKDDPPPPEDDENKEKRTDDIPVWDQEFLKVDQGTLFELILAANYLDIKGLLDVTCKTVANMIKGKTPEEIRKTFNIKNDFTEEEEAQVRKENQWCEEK", "test": "TR-FRET peptide binding in absence of compound", "description": "(§1) Compounds were incubated in a 20 μl reaction volume with 300 pM biotinylated β-TrCP/Skp1 preincubated with 1.2 nM terbium-coupled streptavidin (Cisbio) and BODIPY-FL labeled β-catenin peptides (see figure legends for peptide details) in a white 384-well microplate (Perkin Elmer ProxiPlate), using a PBS buffer containing 0.01% Triton X-100 and 2 mM DTT with 2% final DMSO. […] Following 1-h incubation, plates were read for TR-FRET signal after excitation at 320 nm and read at 520 and 620 nm using an EnVision plate reader (Perkin Elmer). TR-FRET signal was calculated using a 520/620 nm ratio. Binding and enhancement data were fit to a standard Hill equation (Y = Bmin + (Bmax − Bmin)(X^h)/(X^h + EC50^h)) in Prism (GraphPad). Errors are standard error of the fit."}, "[2]": {"biological_target": "T2, pSer33/Ser37 β-catenin peptide binding to β-TrCP (Homo sapiens, UniProt P35222+Q9Y297)", "T2 construct": "titrating BODIPY-FL-labeled β-catenin peptides (residues 17-48) against 300 pM β-TrCP; 6xHis-SMT3 (N, cleaved yes); made in house; host or cells: E. coli (co-expressed with BirA)", "test": "TR-FRET peptide binding and cooperativity assay, pSer33/Ser37 peptide", "details": "ratio of peptide KD without and with saturating enhancer; pSer33/Ser37", "description": "as §1"}, "[3]": {"biological_target": "T3, pSer33/Ser37 β-catenin:β-TrCP interaction (Homo sapiens, UniProt P35222+Q9Y297)", "T3 construct": "titrating BODIPY-FL-labeled β-catenin peptides (residues 17-48) against 300 pM β-TrCP; 6xHis-SMT3 (N, cleaved yes); made in house; host or cells: E. coli (co-expressed with BirA)", "T3 sequence (Q9Y297 1-569 isoform Q9Y297-2)": "as the sequence (Q9Y297 1-569 isoform Q9Y297-2) above", "T3 sequence (P63208 whole entry partner, the tested form may be a part)": "as the sequence (P63208 whole entry partner) above", "T3 sequence (P35222 17-48 limits assumed)": "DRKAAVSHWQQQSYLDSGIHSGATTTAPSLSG", "test": "TR-FRET binding enhancement assay, pSer33/Ser37 peptide", "description": "as §1"}, "[4]": {"biological_target": "T4, pSer33/Ser37 β-catenin peptide ubiquitylation by SCFβ-TrCP (Homo sapiens, UniProt P35222+Q9Y297)", "T4 construct": "fluorescently-labeled β-catenin peptide (residues 17–60) were ubiquitylated; 6xHis-SMT3 (N, cleaved yes); made in house; host or cells: E. coli (β-TrCP1/Skp1); E. coli or SF9 (Cul1-Rbx1)", "T4 sequence (Q9Y297 1-569 isoform Q9Y297-2)": "as the sequence (Q9Y297 1-569 isoform Q9Y297-2) above", "T4 sequence (P63208 whole entry partner, the tested form may be a part)": "as the sequence (P63208 whole entry partner) above", "T4 sequence (Q13616 whole entry partner, the tested form may be a part)": "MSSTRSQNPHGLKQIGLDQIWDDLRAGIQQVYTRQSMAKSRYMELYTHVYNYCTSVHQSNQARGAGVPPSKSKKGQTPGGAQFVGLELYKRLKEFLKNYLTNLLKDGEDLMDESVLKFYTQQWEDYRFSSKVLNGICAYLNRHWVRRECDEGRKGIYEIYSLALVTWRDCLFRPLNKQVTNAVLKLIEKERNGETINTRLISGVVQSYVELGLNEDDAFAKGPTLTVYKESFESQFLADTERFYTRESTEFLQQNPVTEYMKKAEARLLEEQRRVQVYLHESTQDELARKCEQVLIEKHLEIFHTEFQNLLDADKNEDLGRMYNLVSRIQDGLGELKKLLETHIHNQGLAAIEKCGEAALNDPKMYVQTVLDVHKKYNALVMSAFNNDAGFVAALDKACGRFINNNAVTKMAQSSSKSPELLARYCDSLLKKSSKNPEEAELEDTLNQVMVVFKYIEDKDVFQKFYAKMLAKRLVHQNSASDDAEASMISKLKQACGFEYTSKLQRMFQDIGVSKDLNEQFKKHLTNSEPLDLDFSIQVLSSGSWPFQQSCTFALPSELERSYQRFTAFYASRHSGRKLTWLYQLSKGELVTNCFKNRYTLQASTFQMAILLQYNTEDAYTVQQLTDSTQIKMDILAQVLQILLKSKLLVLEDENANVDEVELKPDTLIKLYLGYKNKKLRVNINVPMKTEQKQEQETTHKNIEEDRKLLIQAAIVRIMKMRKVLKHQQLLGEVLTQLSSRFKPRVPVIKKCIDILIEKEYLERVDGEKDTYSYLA", "T4 sequence (P62877 whole entry partner, the tested form may be a part)": "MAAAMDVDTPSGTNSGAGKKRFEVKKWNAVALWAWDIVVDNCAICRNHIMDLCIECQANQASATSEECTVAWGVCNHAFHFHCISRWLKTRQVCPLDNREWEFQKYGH", "T4 sequence (Q15843 1-76 partner limits assumed)": "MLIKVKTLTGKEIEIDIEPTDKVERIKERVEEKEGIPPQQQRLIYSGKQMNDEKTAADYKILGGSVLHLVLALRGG", "T4 sequence (P35222 17-60 limits assumed)": "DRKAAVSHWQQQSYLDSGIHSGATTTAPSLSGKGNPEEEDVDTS", "test": "In vitro ubiquitylation of pSer33/Ser37 β-catenin peptide", "format": "biochemical", "description": "(§2) Four micromolar of fluorescently-labeled β-catenin peptide (residues 17–60) were ubiquitylated in a buffer containing 25 mM Tris Cl (pH 7.5), 50 mM NaCl, 5 mM MgCl2, 2 mM ATP, and 1 mM DTT at room temperature in the presence of 62.5 μM Ubiquitin, 125 nM Ube1, 1.75 μM Cdc34A, and 100 nM neddylated SCF^β-TrCP in the presence or absence of compound (as indicated). Typically, individual reaction mixes with either Ubiquitin, Ube1 and Cdc34A or β-catenin, SCF^β-TrCP and compound were preincubated and subsequently mixed to initiate β-catenin ubiquitylation. Reactions were quenched by SDS loading buffer, resolved by SDS-PAGE and imaged for fluorescence. For full length β-catenin protein ubiquitylation 400 nM β-catenin and 400 nM SCF^β-TrCP were used instead."}, "[5]": {"biological_target": "T5, pSer33/S37A β-catenin peptide binding to β-TrCP (Homo sapiens, UniProt P35222+Q9Y297, S37A)", "T5 construct": "titrating BODIPY-FL-labeled β-catenin peptides (residues 17-48) against 300 pM β-TrCP; 6xHis-SMT3 (N, cleaved yes); made in house; host or cells: E. coli (co-expressed with BirA)", "T5 sequence (Q9Y297 1-569 isoform Q9Y297-2, stated change not applied)": "as the sequence (Q9Y297 1-569 isoform Q9Y297-2) above", "T5 sequence (P63208 whole entry partner, the tested form may be a part)": "as the sequence (P63208 whole entry partner) above", "T5 sequence (P35222 17-48 S37A limits assumed)": "as the sequence (P35222 17-48 limits assumed) above, with S21A counted along it", "test": "TR-FRET binding enhancement assay, pSer33/S37A peptide", "description": "as §1"}, "[6]": {"biological_target": "T6, S33E/S37A β-catenin peptide binding to β-TrCP (Homo sapiens, UniProt P35222+Q9Y297, S33E/S37A)", "T6 construct": "titrating BODIPY-FL-labeled β-catenin peptides (residues 17-48) against 300 pM β-TrCP; 6xHis-SMT3 (N, cleaved yes); made in house; host or cells: E. coli (co-expressed with BirA)", "T6 sequence (Q9Y297 1-569 isoform Q9Y297-2, stated change not applied, one chain of several)": "as the sequence (Q9Y297 1-569 isoform Q9Y297-2) above", "T6 sequence (P63208 whole entry partner, one chain of several, the tested form may be a part)": "as the sequence (P63208 whole entry partner) above", "test": "TR-FRET peptide binding assay, S33E/S37A peptide", "details": "read-out: binding affinity of S33E/S37A peptide", "description": "as §1"}, "[7]": {"biological_target": "T6, S33E/S37A β-catenin peptide binding to β-TrCP", "test": "TR-FRET binding enhancement assay, S33E/S37A peptide", "details": "1% binding saturation", "description": "as §1"}, "[8]": {"biological_target": "T7, full-length S33E/S37A β-catenin protein ubiquitylation by SCFβ-TrCP (Homo sapiens, UniProt P35222+Q9Y297, S33E/S37A)", "T7 construct": "6xHis-SMT3 (N, cleaved yes); host or cells: HEK293T (β-catenin); E. coli (β-TrCP1/Skp1); E. coli or SF9 (Cul1-Rbx1)", "test": "In vitro ubiquitylation of full-length S33E/S37A β-catenin protein", "format": "biochemical", "details": "20 μM compound", "description": "as §2"}, "[9]": {"biological_target": "T8, pSer33/S37A β-catenin peptide ubiquitylation by SCFβ-TrCP (Homo sapiens, UniProt P35222+Q9Y297, S37A)", "T8 construct": "fluorescently-labeled β-catenin peptide (residues 17–60; as indicated) was ubiquitylated; 6xHis-SMT3 (N, cleaved yes); made in house; host or cells: E. coli (β-TrCP1/Skp1); E. coli or SF9 (Cul1-Rbx1)", "test": "In vitro ubiquitylation of pSer33/S37A β-catenin peptide", "format": "biochemical", "description": "as §2"}, "[10]": {"biological_target": "T5, pSer33/S37A β-catenin peptide binding to β-TrCP", "test": "TR-FRET peptide binding and cooperativity assay, pSer33/S37A peptide", "description": "as §1"}, "[11]": {"biological_target": "T9, S33E/S37A β-catenin peptide ubiquitylation by SCFβ-TrCP (Homo sapiens, UniProt P35222+Q9Y297, S33E/S37A)", "T9 construct": "fluorescently-labeled S33E/S37A β-catenin peptide (residues 17–60) was ubiquitylated; 6xHis-SMT3 (N, cleaved yes); made in house; host or cells: E. coli (β-TrCP1/Skp1); E. coli or SF9 (Cul1-Rbx1)", "test": "In vitro ubiquitylation of S33E/S37A β-catenin peptide", "format": "biochemical", "details": "20 μM compound", "description": "as §2"}}, "note": "Where no end group is shown, it is not given here.", "data": [{"compound": "Ac-CDRKAAVSHWQQQSYLDEGIHAGATTTAPSLSG [S33E/S37A]", "values": [{"measurement": "decrease in binding affinity relative to pSer33/S37A peptide", "setting": "[1]", "result": "> 10", "unit": "fold"}]}, {"compound": "O=C(O)c1cccc(NC(=O)c2c(Oc3ccccc3)cc(C(F)(F)F)[nH]c2=O)c1", "note": "[NRX-2663]", "values": [{"measurement": "cooperativity of binding", "setting": "[2]", "result": 13, "unit": "fold"}, {"measurement": "EC50", "setting": "[3]", "result": "80 ± 4", "unit": "µM"}, {"measurement": "ligand concentration at which ubiquitin chain formation resembles WT pSer33/pSer37 peptide", "setting": "[4]", "result": "≥ 16", "unit": "μM"}, {"measurement": "enhancement of ubiquitylation of pSer33/Ser37 β-catenin peptide", "setting": "[4]; peptide residues 17–60", "result": "markedly enhances"}, {"measurement": "EC50", "setting": "[5]", "result": "22.9 ± 1.4", "unit": "µM"}]}, {"compound": "O=C(O)c1cccc(NC(=O)c2c(Sc3c(Cl)cccc3Cl)cc(C(F)(F)F)[nH]c2=O)c1", "note": "[NRX-103094]", "values": [{"measurement": "Kd", "setting": "[6]", "result": 0.022, "unit": "µM"}, {"measurement": "EC50", "setting": "[7]", "result": "3.9 ± 0.1", "unit": "µM"}, {"measurement": "ubiquitylation of full-length S33E/S37A β-catenin protein", "setting": "[8]", "result": "strongly ubiquitylated"}, {"measurement": "concentration giving ubiquitylation greater than WT pSer33/pSer37 levels", "setting": "[9]", "result": 250, "unit": "nM"}, {"measurement": "cooperativity of peptide binding to β-TrCP", "setting": "[10]", "result": 1000, "unit": "fold"}, {"measurement": "ubiquitylation of S33E/S37A β-catenin peptide", "setting": "[11]", "result": "robust time-dependent ubiquitylation"}]}]}
